Results reported in US20050112573A1, “Method of detecting toxic substance” (priority 2001, published 2005).

Test system: yeast genes (level of expressed mRNA)
Experiment: DNA chip analysis of expressed mRNA of yeast genes after 2 h culture with a toxic chemical substance
Type: cell-based, Saccharomyces cerevisiae S288C
Conditions: for The level of expressed mRNA in the presence of chemical substance/ in its absence, gene YDL078C: yeast gene YDL078C; for The level of expressed mRNA in the presence of chemical substance/ (ratio to absence of chemical substance): stress protein genes, DNA chip
Experimental: Yeast (Saccharomyces cerevtisiae S288C (α SUC2mal mel gap2 CUP1)) were cultured at 25° C. on YPD medium (yeast extract 1%, polypepton 2%, glucose 2%). One of toxic chemical substances was added to the cell at logarithmic growth phase, and the cell was further cultured for two hours. Cell was cultured without any chemical substance in the same condition, and was used as control. Concentrations of the chemical substances were defined to inhibit the growth of the yeast but not lead to death.
After the completion of cultivation, the culture was centrifuged to collect the cells. To the cells, sodium acetate buffer (50 mM sodium acetate, 10 mM EDTA, 1% SDS) was added, and the mixture was shaken at 65° C. for five minutes, followed by returning to room temperature, and obtaining the supernatant, which procedure was repeated two times. To the supernatant, ½ amount of a solution of phenol/chloroform was added, and the mixture was centrifuged to give a supernatant, which was added with an equal amount of chloroform, and the mixture was centrifuged to give a supernatant. To the supernatant, an equal amount of isopropanol containing 0.3 M sodium acetate was added, and the mixture was allowed to stand at room temperature for 30 minutes, after which the mixture was centrifuged to give a sediment of the whole RNAs. Seventy % ethanol was added to the sediment, and the mixture was again centrifuged to give a sediment, which was then dried and dissolved in water. mRNA was isolated from the whole RNAs as followings. In view of the fact that a poly A chain is attached to the 3′ terminus of mRNA, a polynucleotide having a poly T structure which was immobilized on the surface of latex beads was used to trap the mRNA, and then the mRNA was washed and eluted with spine column (Oligotex-dT30<Super>mRNA Purification Kit, Takara). Reverse transcription of the mRNA was conducted with a reverse transcriptase (Super Script II Reverse Transcriptase; catalogue No. 18064-014, GibcoBRL) using fluorescence-labeled nucleotides to give cDNAs that were introduced with Cy3-dUTP or Cy5-dUTP during the reverse transcription.
The labeled cDNAs were dissolved in TE buffer (10 mM Tris-HCl/1 mM EDTA, pH8.0), and the solution was dropped on the DNA chip containing the whole genes of yeast (DNA Chip Research Inc. Japan) so that the cDNAs were hybridized on the DNA chip at 65° C. for over 12 hours. The fluoresces intensity of the DNA chip was read with a scanner, and the ratio relative to the fluorescence intensity resulting from the absence of chemical substance was estimated as the following, which is shown in Tables 1 to 9: [formula]
In the Tables, “Intensity” indicated in the rightmost column is a value of the level of expressed mRNA of each gene in control cells as divided by the average level of the expressions of the whole genes.

S=C([S-])NCCNC(=S)[S-].[Zn+2] [(11), zinc N,N′-ethylenebis(dithiocarbamate)]
The level of expressed mRNA in the presence of chemical substance/ in its absence, gene YDL078C (energy system protein genes, 2 h culture with the chemical, ratio to control without chemical): 1.7
The level of expressed mRNA in the presence of chemical substance/ in its absence, gene YDL078C (ratio of DNA chip fluorescence intensity to that without chemical substance): 1.7
The level of expressed mRNA in the presence of chemical substance/ (in its absence), gene YDL215C (yeast gene YDL215C, ratio of DNA chip fluorescence intensity to that without chemical substance): 0.8
The level of expressed mRNA in the presence of chemical substance/The level of expressed mRNA in the absence of chemical substance (yeast gene YDL238C): 1.1
The level of expressed mRNA in the presence of chemical substance/The level of expressed mRNA in the absence of chemical substance (yeast gene YDR055W): 2.2
The level of expressed mRNA in the presence of chemical substance/ (in its absence), gene YDR073W (yeast gene YDR073W, ratio of DNA chip fluorescence intensity to that without chemical substance): 1.0
The level of expressed mRNA in the presence of chemical substance/ in its absence, gene YDR079W (yeast gene YDR079W, energy system protein genes, 2 h culture with the chemical, ratio to control without chemical): 1.3
The level of expressed mRNA in the presence of chemical substance/ (ratio to absence), gene YDR079W (yeast gene YDR079W, mitochondria-located protein genes, 2 h culture with chemical): 1.3
The level of expressed mRNA in the presence of chemical substance/The level of expressed mRNA in the absence of chemical substance (yeast gene YDR084C): 0.7
The level of expressed mRNA in the presence of chemical substance/The level of expressed mRNA in the absence of chemical substance (yeast gene YDR085C): 1.7
The level of expressed mRNA in the presence of chemical substance/The level of expressed mRNA in the absence of chemical substance (yeast gene YDR104C): 1.0
The level of expressed mRNA in the presence of chemical substance/The level of expressed mRNA in the absence of chemical substance (yeast gene YDR115W): 1.2
The level of expressed mRNA in the presence of chemical substance/The level of expressed mRNA in the absence of chemical substance (yeast gene YDR259C): 1.2
The level of expressed mRNA in the presence of chemical substance/ (in its absence), gene YDR297W (yeast gene YDR297W, ratio of DNA chip fluorescence intensity to that without chemical substance): 1.4
The level of expressed mRNA in the presence of chemical substance/The level of expressed mRNA in the absence of chemical substance (yeast gene YDR315C): 1.1
The level of expressed mRNA in the presence of chemical substance/The level of expressed mRNA in the absence of chemical substance (yeast gene YDR358W): 1.0
The level of expressed mRNA in the presence of chemical substance/ (ratio to absence), gene YDR377W (yeast gene YDR377W, mitochondria-located protein genes, 2 h culture with chemical): 1.4
The level of expressed mRNA in the presence of chemical substance/ (in its absence), gene YDR387C (yeast gene YDR387C, ratio of DNA chip fluorescence intensity to that without chemical substance): 2.0
The level of expressed mRNA in the presence of chemical substance/The level of expressed mRNA in the absence of chemical substance (yeast gene YDR388W): 1.6
The level of expressed mRNA in the presence of chemical substance/The level of expressed mRNA in the absence of chemical substance (yeast gene YDR432W): 0.6
The level of expressed mRNA in the presence of chemical substance/The level of expressed mRNA in the absence of chemical substance (yeast gene YDR481C): 1.2
The level of expressed mRNA in the presence of chemical substance/The level of expressed mRNA in the absence of chemical substance (yeast gene YDR510W): 1.6
The level of expressed mRNA in the presence of chemical substance/ (ratio to absence of chemical substance) (yeast gene YEL039C): 1.7
The level of expressed mRNA in the presence of chemical substance/The level of expressed mRNA in the absence of chemical substance (yeast gene YEL042W): 1.6
The level of expressed mRNA in the presence of chemical substance/The level of expressed mRNA in the absence of chemical substance (yeast gene YEL066W): 1.9
The level of expressed mRNA in the presence of chemical substance/ (in its absence), gene YER015W (yeast gene YER015W, ratio of DNA chip fluorescence intensity to that without chemical substance): 1.0
The level of expressed mRNA in the presence of chemical substance/The level of expressed mRNA in the absence of chemical substance (yeast gene YER039C): 1.2
The level of expressed mRNA in the presence of chemical substance/ (ratio to absence of chemical substance) (yeast gene YER057C): 1.8
The level of expressed mRNA in the presence of chemical substance/The level of expressed mRNA in the absence of chemical substance (yeast gene YER107C): 0.7
The level of expressed mRNA in the presence of chemical substance/The level of expressed mRNA in the absence of chemical substance (yeast gene YER130C): 0.9
The level of expressed mRNA in the presence of chemical substance/The level of expressed mRNA in the absence of chemical substance (yeast gene YFL028C): 1.3
The level of expressed mRNA in the presence of chemical substance/The level of expressed mRNA in the absence of chemical substance (yeast gene YFL043C): 1.1
The level of expressed mRNA in the presence of chemical substance/ (in its absence), gene YGL035C (yeast gene YGL035C, ratio of DNA chip fluorescence intensity to that without chemical substance): 1.3
The level of expressed mRNA in the presence of chemical substance/ (in its absence), gene YGL115W (yeast gene YGL115W, ratio of DNA chip fluorescence intensity to that without chemical substance): 1.0
The level of expressed mRNA in the presence of chemical substance/ (ratio to absence of chemical substance) (yeast gene YGL115W): 1.0
The level of expressed mRNA in the presence of chemical substance/The level of expressed mRNA in the absence of chemical substance (yeast gene YGL158W): 0.2
The level of expressed mRNA in the presence of chemical substance/ (ratio to absence), gene YGL187C (yeast gene YGL187C, mitochondria-located protein genes, 2 h culture with chemical): 0.7
The level of expressed mRNA in the presence of chemical substance/ (in its absence), gene YGL205W (yeast gene YGL205W, ratio of DNA chip fluorescence intensity to that without chemical substance): 0.4
The level of expressed mRNA in the presence of chemical substance/The level of expressed mRNA in the absence of chemical substance (yeast gene YGL229C): 1.1
The level of expressed mRNA in the presence of chemical substance/ in its absence, gene YGR062C (yeast gene YGR062C, energy system protein genes, 2 h culture with the chemical, ratio to control without chemical): 1.6
The level of expressed mRNA in the presence of chemical substance/ (ratio to absence), gene YGR062C (yeast gene YGR062C, mitochondria-located protein genes, 2 h culture with chemical): 1.6
The level of expressed mRNA in the presence of chemical substance/ (in its absence), gene YGR096W (yeast gene YGR096W, ratio of DNA chip fluorescence intensity to that without chemical substance): 0.8
The level of expressed mRNA in the presence of chemical substance/The level of expressed mRNA in the absence of chemical substance (yeast gene YGR136W): 1.3
The level of expressed mRNA in the presence of chemical substance/The level of expressed mRNA in the absence of chemical substance (yeast gene YGR189C): 1.5
The level of expressed mRNA in the presence of chemical substance/The level of expressed mRNA in the absence of chemical substance (yeast gene YGR213C): 1.6
The level of expressed mRNA in the presence of chemical substance/The level of expressed mRNA in the absence of chemical substance (yeast gene YGR257C): 1.2
The level of expressed mRNA in the presence of chemical substance/ (in its absence), gene YGR287C (yeast gene YGR287C, ratio of DNA chip fluorescence intensity to that without chemical substance): 1.5
The level of expressed mRNA in the presence of chemical substance/ (in its absence), gene YGR288W (yeast gene YGR288W, ratio of DNA chip fluorescence intensity to that without chemical substance): 1.3
The level of expressed mRNA in the presence of chemical substance/ (ratio to absence of chemical substance) (yeast gene YHL028W): 0.7
The level of expressed mRNA in the presence of chemical substance/ (ratio to absence of chemical substance) (yeast gene YHL046C): 0.4
The level of expressed mRNA in the presence of chemical substance/The level of expressed mRNA in the absence of chemical substance (yeast gene YHR004C): 0.8
The level of expressed mRNA in the presence of chemical substance/The level of expressed mRNA in the absence of chemical substance (yeast gene YHR071W): 1.8
The level of expressed mRNA in the presence of chemical substance/The level of expressed mRNA in the absence of chemical substance (yeast gene YHR139C): 3.5
The level of expressed mRNA in the presence of chemical substance/The level of expressed mRNA in the absence of chemical substance (yeast gene YHR142W): 1.1
The level of expressed mRNA in the presence of chemical substance/ (in its absence), gene YHR210C (yeast gene YHR210C, ratio of DNA chip fluorescence intensity to that without chemical substance): 1.5
The level of expressed mRNA in the presence of chemical substance/ (in its absence), gene YIL006W (yeast gene YIL006W, ratio of DNA chip fluorescence intensity to that without chemical substance): 1.0
The level of expressed mRNA in the presence of chemical substance/ (ratio to absence of chemical substance) (yeast gene YIL011W): 2.5
